Experimental data taken from patent US20050027106A1, “Cancerous disease modifying antibodies” (priority 2003, published 2005).

What was measured:
[1] = test system: HT-29 colon cancer cell line; assay: Live/Dead cytotoxicity assay, hybridoma supernatant; conditions: 5 days
Protocol: (§1) In conjunction with testing for antibody binding, the cytotoxic effects of the hybridoma supernatants were tested in the same colon cancer and normal cell lines: HT-29, SW1116 (and Lovo for AR26A439.3) and CCD-27sk. The Live/Dead cytotoxicity assay was obtained from Molecular Probes ([…].). The assays were performed according to the manufacturer's instructions with the changes outlined below. Cells were plated before the assay at the predetermined appropriate density. After 2 days, 100 μl of supernatant from the hybridoma microtitre plates were transferred to the cell plates and incubated in a 5 percent CO2 incubator for 5 days. […] An anti-EGFR antibody (C225) was also used in the assay for comparison. After 5 days of treatment, the plate was then emptied by inverting and blotting dry. Room temperature DPBS (Dulbecco's phosphate buffered saline) containing MgCl2 and CaCl2 was dispensed into each well from a multichannel squeeze bottle, tapped 3 times, emptied by inversion and then blotted dry. 50 μl of the fluorescent Live/Dead dye diluted in DPBS containing MgCl2 and CaCl2 was added to each well and incubated at 37° C. in a 5% CO2 incubator for 30 minutes. The plates were read in a Perkin-Elmer HTS7000 fluorescence plate reader and the data was analyzed in Microsoft Excel.

[2] = as above; conditions: human
Protocol: as §1

[3] = test system: CCD-27sk normal cell line; assay: as above; conditions: 5 days
Protocol: as §1

Compound	Cytotoxicity (%) HT-29 Average [1] [%]	cytotoxicity at 5 days [2] [%]	cytotoxicity at 5 days ([2]; Cytotoxicity (%) HT-29 Average) [%]	Cytotoxicity (%) CCD-27sk Average [3] [%]	cytotoxicity at 5 days ([2]; Cytotoxicity (%) CCD-27sk Average) [%]
[N-]=[N+]=[N-] [NaN3, sodium azide]	57	4	59	–	–
C[C@@H]1C[C@@H]([C@H](O)CC2CC(=O)NC(=O)C2)C(=O)[C@@H](C)C1 [Cycloheximide]	48	56	46	40	21
